Measurements as given in PMC6769459, “Inhibition of Tyrosine-Phosphorylated STAT3 in Human Breast and Lung Cancer Cells by Manuka Honey is Mediated by Selective Antagonism of the IL-6 Receptor” (International Journal of Molecular Sciences, 2019).
Where “and” joins values, the source holds several entries; their conditions need not be identical. Identical values can stand only once. Entries after “also recorded” stand apart in the source; their conditions may differ.

Experiments:
[1] = test system: p-STAT3 in human bladder cancer cells; parameters: method as in PMID 29805643; conditions: 40–80 μM, mostly after 24 h; cited from earlier work
IL-6Rα = target: T1, IL-6Rα (Homo sapiens, UniProt P08887); assay: ELISA-based competitive binding assay, IL-6 binding to immobilized IL-6Rα
T1 construct: purchased R&D Systems
T1 sequence (P08887 20-355 limits assumed): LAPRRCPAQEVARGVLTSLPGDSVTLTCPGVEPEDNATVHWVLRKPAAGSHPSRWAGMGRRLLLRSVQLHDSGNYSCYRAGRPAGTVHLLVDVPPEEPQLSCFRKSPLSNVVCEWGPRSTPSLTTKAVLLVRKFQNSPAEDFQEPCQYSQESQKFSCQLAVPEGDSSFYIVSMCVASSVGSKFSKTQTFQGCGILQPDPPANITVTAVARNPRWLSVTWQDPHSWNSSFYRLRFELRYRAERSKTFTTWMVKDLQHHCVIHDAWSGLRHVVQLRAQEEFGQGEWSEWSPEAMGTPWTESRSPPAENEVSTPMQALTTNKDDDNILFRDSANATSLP
Method: We used an ELISA-based assay to determine if MH can bind to recombinant IL-6Rα, IL-8R, and IL-11Rα proteins (all purchased from R&D Systems; Minneapolis, MN, USA). IL-6Rα (2 μg/mL), IL-8R (0.5 μg/mL), or IL-11Rα (1 μg/mL) proteins were coated on 96-well plates by overnight incubation at 4 °C. The plates were then washed with PBS + 0.05% tween 20 and blocked with PBS containing 1% BSA for 1 h at room temperature. For competition assay, various concentrations of MH (0.03–3%) were added to recombinant receptor-coated plates and incubated for 1 h at room temperature. After thorough washing, recombinant IL-6, IL-8, or IL-11 cytokines were added (50 ng/mL) and incubated for 1 h at 37 °C. The plates were then thoroughly washed and biotin-conjugated mAbs to IL-6 (0.25 µg/mL), IL-8 (0.5 µg/mL) or IL-11 (0.5 µg/mL) were added for 1 h at room temperature. After another round of washing, HRP-conjugated streptavidin was added for 30 min, washed, and developed by adding 3,3′,5,5′-Tetramethylbenzidine (TMB) substrate for 10 min. Additionally, the potential effect of flavonoid compounds (luteolin, quercetin, galangin, and chrysin; dose range 0.5–50 μM) on binding to IL-6Rα was investigated in the same assay. The dose-response was modeled based on mass-action kinetic drug-response interactions.

[2] = test system: p-STAT3 in MDA-MB-231 cells; assay: Western blot of p-STAT3 / total STAT3 in MDA-MB-231 cells; assay type: cell-based, human; conditions: for IC50: Homo sapiens, MDA-MB-231, 1 h, MDA-MB-231, 1 h treatment, densitometry of Western blots, approximate, read-out: IC50 for inhibition of p-STAT3 levels
Method: The expression of different proteins involved in IL-6 signaling pathway was analyzed by Western blots, as previously described. Briefly, MDA-MB-231 or A549 cells (2 × 10^6 cells/well) were seeded overnight in DMEM/RPMI plus 2% FBS, followed by incubation with MH or sugar control (SC) in 5% FBS-DMEM/RPMI for different times, as indicated in the figures. In some studies, we investigated the effect of treatment with different flavonoid compounds on p-STAT3 expression using a range of doses (0.4–50 μM). In other experiments, we also studied the effect of incubating MDA-MB-231 cells in the presence of Brefeldin A (BFA; 1 mg/mL) alone or with 1% MH for 4 h on p-STAT3 levels. Cell extracts were prepared in RIPA buffer and subjected to Western blot analysis using antibodies (purchased from Cell Signaling Technology, Danvers, MA, USA) specific to total STAT3 (t-STAT3), tyrosine-phosphorylated (Tyr705) STAT3 (p-STAT3), gp130, JAK2, tyrosine-phosphorylated (Tyr1007/1008) JAK2 (p-JAK2), tyrosine-phosphorylated (Tyr416) Src family (p-Src), total Src, and β-actin. Densitometric analysis of the band intensity on the blots was done using ImageJ (National Institutes of Health, USA). We modeled the binding inhibition pharmacodynamics of p-STAT3 levels as standard drug-receptor interactions based on mass-action kinetics. Specifically, dose response was modelled as: Y=[L]/[L]+K where Y is the receptor occupancy, L is the ligand concentration, and K is a compound-specific association constant.
Statistical significance between control and treated groups was analyzed using the unpaired, two-tailed Student’s t-test, using the statistical program of GraphPad Prism version 6 software (San Diego, CA, USA). For multiple comparisons, we used ordinary two-way ANOVA (GraphPad Prism). Differences between the experimental groups were considered significant when p values were <0.05. Nonlinear regression best-fit curve analysis was used to determine the IC50 for p-STAT3 inhibition.

[3] = test system: p-STAT3 in lung cancer cells; parameters: method as in PMID 25830055; conditions: 66 μM, 12–24 h; cited from earlier work
[4] = test system: STAT3 in different types of cancer cells; parameters: method as in PMID 16651438, PMID 23145121, PMID 24525192, PMID 24998588, PMID 26527884; conditions: different cancer cell types; cited from earlier work
[5] = 10-fold lower concentration (5 μM)

Structure (SMILES)	p-STAT3 [1]	inhibition of IL-6 binding to IL-6Rα (IL-6Rα; 50 μM flavonoid)	inhibition of IL-6 binding to IL-6Rα (IL-6Rα; [5])	IC50 [2]	p-STAT3 levels [3]	binding to IL-6Rα (IL-6Rα; up to 50 μM)	concentration range at which inhibitory effects were observed [4]	p-STAT3 levels ([2]; MDA-MB-231, 4 h, Brefeldin A 1 mg/mL alone or with 1% MH)
O=c1cc(-c2ccccc2)oc2cc(O)cc(O)c12 [chrysin]	inhibit p-STAT3	31.8%	decreased but significant inhibition	~7.7 µM and 2 µg/mL	–	–	–	–
O=c1c(O)c(-c2ccc(O)c(O)c2)oc2cc(O)cc(O)c12 [quercetin]	–	29.2%	decreased but significant inhibition	~51 µM and 15.4 µg/mL	reduce p-STAT3 levels	–	–	–
O=C1C[C@@H](c2ccccc2)Oc2cc(O)cc(O)c21 [pinocembrin]	–	–	–	~70.2 µM and 18 µg/mL	–	no significant binding; also recorded: inability to detect any binding	–	–
O=c1cc(-c2ccc(O)c(O)c2)oc2cc(O)cc(O)c12 [luteolin]	–	22.4%	–	~3.5 µM and 1 µg/mL	–	–	20 to 50 µM	–
O=c1c(O)c(-c2ccccc2)oc2cc(O)cc(O)c12 [galangin]	–	34.3%	decreased but significant inhibition	~4.4 µM and 1.2 µg/mL	–	–	–	–
C[C@H]1CCC/C=C/[C@@H]2C[C@H](O)C[C@H]2[C@H](O)/C=C/C(=O)O1 [Brefeldin A]	–	–	–	–	–	–	–	significant loss
